This is an account of results in patent publication US9580444B2, “Polycyclic pyrazolinone derivative and herbicide comprising same as effective component thereof” (priority 2013, dated 2017).

SMILES strings stand for the structures.

Type in all cases: in vivo
In data set [1] the test system is corn. The data set can be described thus: Test Example-4: phytotoxicity by a foliage treatment after weeds are generated under upland field conditions. As to conditions: 500 g a.i/ha, foliage treatment after emergence, about 14 days after treatment, score 0-5. Put shortly: (§1)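 Weed seeds were sown in upland soil, covered with about 0.5 cm soil and grown 14 days with watering. Diluted wettable powder or emulsifiable concentrate was then sprayed uniformly on foliage at a set dosage in 4000 L water/ha. Weed control and corn injury were scored 0–5 about 14 days later.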

Data set [2] concerns corn. Description: Test Example-2: phytotoxicity by a soil treatment before weeds are generated under upland field conditions. As to conditions: application amount 500 g a.i/ha, soil spray treatment before weeds are generated, about 21 days after the treatment, score 0 to 5. From the text: (§2) Using the formulation prepared according to the methods described above, the herbicidal effect of the bicyclic pyrazolinone derivative of the invention according to the methods shown in Test Examples below was examined. The herbicidal effect with respect to the test weeds or the phytotoxicity with respect to the test crops was examined according to the following criteria, and evaluated in six stage scores of 0 to 5. A vat having an area of 81 cm^2 and a depth of 3.5 cm was filled with upland soil, then, seeds of Amaranthus viridis (green amaranthus), Chenopodium album (common lambsquarters), and corn were seeded thereto, and the seeds were covered with soil of about 0.5 cm. Next day, a wettable powder or an emulsifiable concentrate of the compound of the present invention prepared according to Formulation Example was diluted, and a spray treatment was uniformly performed on the covered oil so as to be a predetermined dosage. The herbicidal effect with respect to the test weeds and the phytotoxicity with respect to corn about 21 days after the treatment were evaluated according to the evaluation criteria in six stages of 0 to 5 described above.

Data set [3] deals with Echinochloa oryzicola (barnyard grass). The data set can be described thus: Test Example-1: herbicidal effect by a treatment before weeds are generated under submerged conditions. As to conditions: 500 g a.i/ha, pre-emergence treatment, about 15 days after treatment, score 0-5. Put shortly:
(§3)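 Paddy soil in cups was puddled, seeded with the weeds and kept flooded; compound as wettable powder or emulsifiable concentrate was diluted and applied into the water on the seeding day at a set dosage. Effect was scored about 15 days later on a 0–5 scale.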

The subject of data set [4] is other annual broad leaf weeds (Lindernia procumbens, Rotala indica, Elatine triandra). Described as above. Particulars: 500 g a.i/ha, pre-emergence treatment, about 15 days after treatment, score 0-5. The procedure, abridged:
as §3

Data set [5] has as its system Eleocharis acicularis (needle spikerush). The description is as above. As to conditions: 500 g a.i/ha, pre-emergence treatment, about 15 days after treatment, score 0-5. The procedure, abridged: as §3
Data set [6] has as its system Monochoria vaginalis (monochoria). Described as above. Particulars: 500 g a.i/ha, pre-emergence treatment, about 15 days after treatment, score 0-5. Put shortly: as §3
Data set [7] concerns Cyperus difformis (smallflower umbrella plant). Described as above. As to conditions: 500 g a.i/ha, pre-emergence treatment, about 15 days after treatment, score 0-5. The procedure, abridged:
as §3

Data set [8] has as its system Scirpus juncoides (bulrush). The data set is described as above. As to conditions: 500 g a.i/ha, pre-emergence treatment, about 15 days after treatment, score 0-5. Put shortly:
as §3

Data set [9] deals with Abutilon theophrasti (velvetleaf). Description: Test Example-4: herbicidal effect by a foliage treatment after weeds are generated under upland field conditions. As to conditions: 500 g a.i/ha, foliage treatment after emergence, about 14 days after treatment, score 0-5. Put shortly:
as §1

Data set [10] has as its system Amaranthus viridis (green amaranthus). The description is as above. Particulars: 500 g a.i/ha, foliage treatment after emergence, about 14 days after treatment, score 0-5. Put shortly:
as §1

In data set [11] the test system is Chenopodium album (common lambsquarters). Described as above. Particulars: 500 g a.i/ha, foliage treatment after emergence, about 14 days after treatment, score 0-5. The procedure, abridged:
as §1

For data set [12], the system named is Amaranthus viridis (green amaranthus). Description: Test Example-2: herbicidal effect by a soil treatment before weeds are generated under upland field conditions. Particulars: application amount 500 g a.i/ha, soil spray treatment before weeds are generated, about 21 days after the treatment, score 0 to 5.
Source text: as §2

Data set [13] relates to Chenopodium album (common lambsquarters). Described as above. Particulars: application amount 500 g a.i/ha, soil spray treatment before weeds are generated, about 21 days after the treatment, score 0 to 5.
Source text: as §2

For the compound `CC(C)Oc1cc(-c2c(Cl)n3n(c2=O)CCCC3)c(F)cc1Cl` [Example 1-151], the figures for the “Phytotoxicity Corn” value with corn [1] and in the data set on corn [2] were 1 (Herbicidal effect/phytotoxicity was 10% to 30%) and 0 (Herbicidal effect/phytotoxicity was 0% to 10%), respectively. In addition, the “Herbicidal effect Echinochloa oryzicola” value in [3] was 5 (Herbicidal effect/phytotoxicity was 90% or greater). Also, the “Herbicidal effect Broadleaf weed” value in data set [4] was 5 (Herbicidal effect/phytotoxicity was 90% or greater). The “Herbicidal effect Eleocharis acicularis” value in data set [5] is 5 (Herbicidal effect/phytotoxicity was 90% or greater). For the same compound, the “Herbicidal effect Monochoria vaginalis” value in data set [6] is 5 (Herbicidal effect/phytotoxicity was 90% or greater). Besides, in data set [7], the “Herbicidal effect Cyperus difformis” value is reported as 5 (Herbicidal effect/phytotoxicity was 90% or greater). Further, the “Herbicidal effect Scirpus juncoides” value in data set [8] is recorded as 5 (Herbicidal effect/phytotoxicity was 90% or greater). Further, the “Herbicidal effect Abutilon theophrast” value in data set [9] is listed as 5 (Herbicidal effect/phytotoxicity was 90% or greater). Besides, the “Herbicidal effect Amaranthus viridis” value in [10] and in data set [12] was 5 (Herbicidal effect/phytotoxicity was 90% or greater) throughout. For the same compound, the “Herbicidal effect Chenopodium album” value in data set [11] and in [13] was 5 (Herbicidal effect/phytotoxicity was 90% or greater) each time.
Regarding `C#CCOc1cc(-c2c(Cl)n3n(c2=O)CCOCC3)c(F)cc1F` [Example 1-368], the entries for the “Phytotoxicity Corn” value with corn [1] and with corn [2] were 1 (Herbicidal effect/phytotoxicity was 10% to 30%) and 0 (Herbicidal effect/phytotoxicity was 0% to 10%), respectively. The “Herbicidal effect Echinochloa oryzicola” value in data set [3] is reported as 5 (Herbicidal effect/phytotoxicity was 90% or greater). Besides, the “Herbicidal effect Broadleaf weed” value in data set [4] is reported as 5 (Herbicidal effect/phytotoxicity was 90% or greater). Moreover, the “Herbicidal effect Eleocharis acicularis” value in data set [5] is 5 (Herbicidal effect/phytotoxicity was 90% or greater). Moreover, the “Herbicidal effect Monochoria vaginalis” value in data set [6] is 5 (Herbicidal effect/phytotoxicity was 90% or greater). Further, the “Herbicidal effect Cyperus difformis” value in [7] is 5 (Herbicidal effect/phytotoxicity was 90% or greater). For the same compound, the “Herbicidal effect Scirpus juncoides” value in data set [8] was 5 (Herbicidal effect/phytotoxicity was 90% or greater). The “Herbicidal effect Abutilon theophrast” value in [9] is listed as 5 (Herbicidal effect/phytotoxicity was 90% or greater). Moreover, the “Herbicidal effect Amaranthus viridis” value in data set [10] and in [12] was 5 (Herbicidal effect/phytotoxicity was 90% or greater) in each case. For the same compound, the “Herbicidal effect Chenopodium album” value in data set [11] and in [13] was 5 (Herbicidal effect/phytotoxicity was 90% or greater) throughout.
For `O=c1c(-c2cc(OC3CCCC3)c(Cl)cc2F)c(Cl)n2n1CCCC2` [Example 1-181], the “Phytotoxicity Corn” value is on record as 1 (Herbicidal effect/phytotoxicity was 10% to 30%) with corn [1] and 0 (Herbicidal effect/phytotoxicity was 0% to 10%) with corn [2]. The “Herbicidal effect Echinochloa oryzicola” value in [3] is reported as 5 (Herbicidal effect/phytotoxicity was 90% or greater). The “Herbicidal effect Broadleaf weed” value in data set [4] is given as 5 (Herbicidal effect/phytotoxicity was 90% or greater). Besides, the “Herbicidal effect Eleocharis acicularis” value in [5] is given as 5 (Herbicidal effect/phytotoxicity was 90% or greater). The “Herbicidal effect Monochoria vaginalis” value in [6] is recorded as 5 (Herbicidal effect/phytotoxicity was 90% or greater). Besides, the “Herbicidal effect Cyperus difformis” value in data set [7] is 5 (Herbicidal effect/phytotoxicity was 90% or greater). Besides, the “Herbicidal effect Scirpus juncoides” value in data set [8] is reported as 5 (Herbicidal effect/phytotoxicity was 90% or greater). Also, the “Herbicidal effect Abutilon theophrast” value in data set [9] is 5 (Herbicidal effect/phytotoxicity was 90% or greater). Also, the “Herbicidal effect Amaranthus viridis” value in data set [10] and in data set [12] was 5 (Herbicidal effect/phytotoxicity was 90% or greater) in each case. Moreover, the “Herbicidal effect Chenopodium album” value in [11] and in [13] was 5 (Herbicidal effect/phytotoxicity was 90% or greater) throughout.
For the compound `C=C(C)COc1cc(-c2c(Cl)n3n(c2=O)CCCC3)c(F)cc1Cl` [Example 1-214], the “Phytotoxicity Corn” value in the data set with corn [1] is reported as 2 (Herbicidal effect/phytotoxicity was 30% to 50%); with corn [2], 0 (Herbicidal effect/phytotoxicity was 0% to 10%). Besides, the “Herbicidal effect Echinochloa oryzicola” value in data set [3] was 5 (Herbicidal effect/phytotoxicity was 90% or greater). The “Herbicidal effect Broadleaf weed” value in [4] is listed as 5 (Herbicidal effect/phytotoxicity was 90% or greater). For the same compound, the “Herbicidal effect Eleocharis acicularis” value in data set [5] is given as 5 (Herbicidal effect/phytotoxicity was 90% or greater). For the same compound, in data set [6], the “Herbicidal effect Monochoria vaginalis” value is 5 (Herbicidal effect/phytotoxicity was 90% or greater). For the same compound, in data set [7], the “Herbicidal effect Cyperus difformis” value is 5 (Herbicidal effect/phytotoxicity was 90% or greater). Further, the “Herbicidal effect Scirpus juncoides” value in data set [8] is on record as 5 (Herbicidal effect/phytotoxicity was 90% or greater). The “Herbicidal effect Abutilon theophrast” value in [9] is recorded as 5 (Herbicidal effect/phytotoxicity was 90% or greater). The “Herbicidal effect Amaranthus viridis” value in data set [10] and in [12] was 5 (Herbicidal effect/phytotoxicity was 90% or greater) each time. For the same compound, the “Herbicidal effect Chenopodium album” value in data set [11] and in data set [13] was 5 (Herbicidal effect/phytotoxicity was 90% or greater) throughout.
On to `C#CC(C)Oc1cc(-c2c(Cl)n3n(c2=O)CCOCC3)c(F)cc1Cl` (stereo not drawn) [Example 1-245], for which the “Phytotoxicity Corn” value with corn [1] was 1 (Herbicidal effect/phytotoxicity was 10% to 30%); with corn [2], 0 (Herbicidal effect/phytotoxicity was 0% to 10%). The “Herbicidal effect Echinochloa oryzicola” value in [3] is listed as 5 (Herbicidal effect/phytotoxicity was 90% or greater). In addition, the “Herbicidal effect Broadleaf weed” value in [4] was 5 (Herbicidal effect/phytotoxicity was 90% or greater). Further, the “Herbicidal effect Eleocharis acicularis” value in data set [5] is listed as 5 (Herbicidal effect/phytotoxicity was 90% or greater). Also, the “Herbicidal effect Monochoria vaginalis” value in [6] was 5 (Herbicidal effect/phytotoxicity was 90% or greater). Besides, the “Herbicidal effect Cyperus difformis” value in data set [7] is 5 (Herbicidal effect/phytotoxicity was 90% or greater). In addition, the “Herbicidal effect Scirpus juncoides” value in data set [8] was 5 (Herbicidal effect/phytotoxicity was 90% or greater). For the same compound, the “Herbicidal effect Abutilon theophrast” value in data set [9] is 5 (Herbicidal effect/phytotoxicity was 90% or greater). Besides, the “Herbicidal effect Amaranthus viridis” value in data set [10] and in data set [12] was 5 (Herbicidal effect/phytotoxicity was 90% or greater) each time. Moreover, the “Herbicidal effect Chenopodium album” value in data set [11] and in data set [13] was 5 (Herbicidal effect/phytotoxicity was 90% or greater) throughout.
`C#CCOc1cc(-c2c(Cl)n3n(c2=O)CCCCC3)c(Cl)cc1Cl` [Example 1-303]: the “Phytotoxicity Corn” value with corn [1] is recorded as 1 (Herbicidal effect/phytotoxicity was 10% to 30%); in the data set on corn [2] it was 0 (Herbicidal effect/phytotoxicity was 0% to 10%). In addition, the “Herbicidal effect Echinochloa oryzicola” value in [3] was 5 (Herbicidal effect/phytotoxicity was 90% or greater). For the same compound, the “Herbicidal effect Broadleaf weed” value in data set [4] is on record as 5 (Herbicidal effect/phytotoxicity was 90% or greater). Moreover, the “Herbicidal effect Eleocharis acicularis” value in data set [5] is 5 (Herbicidal effect/phytotoxicity was 90% or greater). The “Herbicidal effect Monochoria vaginalis” value in data set [6] is recorded as 5 (Herbicidal effect/phytotoxicity was 90% or greater). In addition, the “Herbicidal effect Cyperus difformis” value in [7] is given as 5 (Herbicidal effect/phytotoxicity was 90% or greater). Also, in [8], the “Herbicidal effect Scirpus juncoides” value is 5 (Herbicidal effect/phytotoxicity was 90% or greater). For the same compound, in [9], the “Herbicidal effect Abutilon theophrast” value is 5 (Herbicidal effect/phytotoxicity was 90% or greater). The “Herbicidal effect Amaranthus viridis” value in [10] and in data set [12] was 5 (Herbicidal effect/phytotoxicity was 90% or greater) each time. The “Herbicidal effect Chenopodium album” value in data set [11] and in data set [13] was 5 (Herbicidal effect/phytotoxicity was 90% or greater) in each case.
